One assay deals with T1, sGC α1/β1 heterodimer (Homo sapiens, UniProt Q02108+Q02153).
T1 construct: expressed in transfected cells
T1 sequence (Q02108 1-690): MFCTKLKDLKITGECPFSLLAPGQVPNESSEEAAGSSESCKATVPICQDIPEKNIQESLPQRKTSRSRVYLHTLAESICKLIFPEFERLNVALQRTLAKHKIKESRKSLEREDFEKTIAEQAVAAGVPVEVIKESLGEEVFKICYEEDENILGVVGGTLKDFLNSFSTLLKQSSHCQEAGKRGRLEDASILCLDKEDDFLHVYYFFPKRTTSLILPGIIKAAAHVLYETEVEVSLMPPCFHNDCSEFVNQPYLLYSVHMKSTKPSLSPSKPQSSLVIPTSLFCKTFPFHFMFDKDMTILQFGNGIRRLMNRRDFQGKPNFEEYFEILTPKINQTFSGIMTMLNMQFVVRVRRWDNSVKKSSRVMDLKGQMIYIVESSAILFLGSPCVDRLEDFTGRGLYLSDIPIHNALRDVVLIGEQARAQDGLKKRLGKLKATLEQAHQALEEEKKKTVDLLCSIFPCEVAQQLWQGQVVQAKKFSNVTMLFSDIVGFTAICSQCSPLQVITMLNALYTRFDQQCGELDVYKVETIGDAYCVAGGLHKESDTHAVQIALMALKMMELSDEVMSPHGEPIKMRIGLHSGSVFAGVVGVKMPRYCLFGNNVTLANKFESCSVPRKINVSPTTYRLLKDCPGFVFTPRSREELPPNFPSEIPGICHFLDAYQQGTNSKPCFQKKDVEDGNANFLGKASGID
T1 sequence (Q02153 1-619): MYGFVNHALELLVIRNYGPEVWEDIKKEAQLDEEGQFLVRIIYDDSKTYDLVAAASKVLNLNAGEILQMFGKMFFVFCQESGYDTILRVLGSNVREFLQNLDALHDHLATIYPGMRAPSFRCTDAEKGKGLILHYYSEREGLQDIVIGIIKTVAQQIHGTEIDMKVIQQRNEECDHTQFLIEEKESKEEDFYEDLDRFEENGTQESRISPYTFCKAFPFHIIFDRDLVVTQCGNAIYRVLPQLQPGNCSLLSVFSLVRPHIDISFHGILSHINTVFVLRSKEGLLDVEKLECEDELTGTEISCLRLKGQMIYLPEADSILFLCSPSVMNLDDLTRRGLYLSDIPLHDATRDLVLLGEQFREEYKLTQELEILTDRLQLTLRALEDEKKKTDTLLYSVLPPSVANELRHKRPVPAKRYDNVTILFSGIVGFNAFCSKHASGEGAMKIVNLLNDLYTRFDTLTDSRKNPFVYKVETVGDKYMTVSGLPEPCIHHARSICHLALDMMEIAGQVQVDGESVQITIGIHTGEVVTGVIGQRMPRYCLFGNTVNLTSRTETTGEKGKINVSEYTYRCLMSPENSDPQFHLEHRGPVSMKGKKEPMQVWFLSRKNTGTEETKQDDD
Kind of assay: Cell-Based sGC Functional Assay (CASA Assay), cGMP generation in CHO-K1/sGC cells.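 Further: reference Compound A is a published heme-dependent sGC activator.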 Conditions: maximum cGMP production of Compound A set to 100% activation, read-out: % Act. (percent activation relative to Compound A). The method, boiled down: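 Intracellular cGMP quantified by HTRF competition after 1 h, 37 °C compound exposure, with or without 1 μM DETA-NO, in stable CHO-K1/sGC α1/β1 cells (4×10^5/mL; buffer with 0.5 mM IBMX, 5 mM MgCl2, 10 mM HEPES, 0.05% BSA; 2.5% DMSO). Activation normalized to reference Compound A maximum; 4P fit.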

For assay [1], the system named is Spontaneously hypertensive rats (SHR). Kind of assay: Acute Efficacy in Spontaneously Hypertensive Rats (SHR), telemetry blood pressure. The class given is in vivo, rat. Conditions: single oral gavage. From the text:
Spontaneously hypertensive rats (SHR, male, Charles River) were implanted with DSI TA11PA-C40 telemetry device (Data Sciences, Inc., St. Paul, Minn.) under isoflurane or ketamine/metomidine anesthesia. The telemetry unit catheter was inserted into the descending aorta via the femoral artery and the telemetry device was implanted subcutaneously in the left flank area. Animals were allowed to recover from surgery for 14 days before the start of any studies. Blood pressure, heart rate, and activity signals from conscious, freely moving rats were recorded continuously for 30 seconds every 10 minutes. On the day prior to administration of compound, a single oral dose of vehicle (10% transcutol/20% Cremophor/70% water) was administered to all animals to establish baseline control data. The blood pressure lowering efficacy of compound (PO) or vehicle was evaluated following a single oral gavage. Data were collected as hourly averages, and changes in blood pressure were calculated by subtracting control baseline data on an hourly basis. Animals were maintained on normal diet with a 12 hour light-dark cycle.
Maximum peak decreases of systolic blood pressure (SBP) in SHR at a particular P.O. dose (mpk milligrams per kilogram) for the following representative compounds are provided. Category A=SBP in SHRs <20 mmHg; Category B=SBP in SHRs 20-40 mmHg; Category C=SBP in SHRs >40 mmHg.

With `CC1(c2ccc(C(F)(F)F)cn2)C(=O)Nc2nc(-c3cn4ncnc4c(CCC(F)(F)F)n3)nc(N)c21` (stereo not shown) [Example 78B, 4-amino-5-methyl-5-(5-(trifluoromethyl)pyridin-2-yl)-2-(8-(3,3,3-trifluoropropyl)-[1,2,4]triazolo[1,5-a]pyrazin-6-yl)-5H-pyrrolo[2,3-d]pyrimidin-6(7H)-one], on sGC α1/β1 heterodimer, the Emax turned out to be 83%. The “Maximum peak decrease of systolic blood pressure (SBP) in SHR, Cat.” value (shortened to “Maximum peak decrease”) in assay [1] (P.O. 3 mpk) is given as “B (Category B=SBP in SHRs 20-40 mmHg)”.
As to `CC1(c2ccc(Cl)cn2)C(=O)Nc2nc(-c3cn4ncnc4c(CCC(F)(F)F)n3)nc(N)c21` (stereo not shown) [Example 79A, 4-amino-5-(5-chloropyridin-2-yl)-5-methyl-2-(8-(3,3,3-trifluoropropyl)-[1,2,4]triazolo[1,5-a]pyrazin-6-yl)-5H-pyrrolo[2,3-d]pyrimidin-6(7H)-one], the Emax on sGC α1/β1 heterodimer was determined as 152%. Moreover, the “Maximum peak decrease” value in assay [1] (P.O. 1 mpk) is “B (Category B=SBP in SHRs 20-40 mmHg)”.
For `C[C@@]1(c2ccc(F)cc2)C(=O)Nc2nc(-c3cn4ncnc4c(Cc4ccc(F)cc4)n3)nc(N)c21` [Example 85B, (S)-4-amino-2-(8-(4-fluorobenzyl)-[1,2,4]triazolo[1,5-a]pyrazin-6-yl)-5-(4-fluorophenyl)-5-methyl-5H-pyrrolo[2,3-d]pyrimidin-6(7H)-one], the Emax on sGC α1/β1 heterodimer worked out at 106%. Further, the “Maximum peak decrease” value in assay [1] (P.O. 0.3 mpk) is recorded as “C (Category C=SBP in SHRs >40 mmHg)”.
For the compound `Cc1nc2c(CCC(F)(F)C(F)(F)F)nc(-c3nc(N)c4c(n3)NC(=O)[C@@]4(C)c3ccc(F)cc3)cn2n1` [Example 88B, (S)-4-amino-5-(4-fluorophenyl)-5-methyl-2-(2-methyl-8-(3,3,4,4,4-pentafluorobutyl)-[1,2,4]triazolo[1,5-a]pyrazin-6-yl)-5H-pyrrolo[2,3-d)pyrimidin-6(7H)-one], the Emax on sGC α1/β1 heterodimer stood at 137%. The “Maximum peak decrease” value in assay [1] (P.O. 1 mpk) is given as “C (Category C=SBP in SHRs >40 mmHg)”.
In the case of `CC1(c2ccc(Cl)cc2)C(=O)Nc2nc(-c3cn4ncnc4cn3)nc(N)c21` (stereo not shown) [Example 94A, 2-([1,2,4]triazolo[1,5-a]pyrazin-6-yl)-4-amino-5-(4-chlorophenyl)-5-methyl-5H-pyrrolo[2,3-d]pyrimidin-6(7H)-one], the Emax on sGC α1/β1 heterodimer amounted to 138%. The “Maximum peak decrease” value in assay [1] (P.O. 1 mpk) is reported as “C (Category C=SBP in SHRs >40 mmHg)”.
In the case of `CC1(c2cn(C3CC3)nn2)C(=O)Nc2nc(-c3cn4ncnc4c(CCC(F)(F)C(F)(F)F)n3)nc(N)c21` (stereo not shown) [Example 95B, 4-Amino-5-(1-cyclopropyl-1H-1,2,3-triazol-4-yl)-5-methyl-2-(8-(3,3,4,4,4-pentafluorobutyl)-[1,2,4]triazolo[1,5-a]pyrazin-6-yl)-5H-pyrrolo[2,3-d]pyrimidin-6(7H)-one], the Emax at sGC α1/β1 heterodimer came to 74%. The “Maximum peak decrease” value in assay [1] (P.O. 0.3 mpk) is listed as “C (Category C=SBP in SHRs >40 mmHg)”.
In the case of `CC1(c2nnc(C3CC3)o2)C(=O)Nc2nc(-c3cn4ncnc4c(CCC(F)(F)C(F)(F)F)n3)nc(N)c21` (stereo not shown) [Example 98B, 4-amino-5-(5-cyclopropyl-1,3,4-oxadiazol-2-yl)-5-methyl-2-(8-(3,3,4,4,4-pentafluorobutyl)-[1,2,4]triazolo[1,5-a]pyrazin-6-yl)-5H-pyrrolo[2,3-d]pyrimidin-6(7H)-one], the Emax on sGC α1/β1 heterodimer worked out at 164%. In assay [1] (P.O. 1 mpk), the “Maximum peak decrease” value is “B (Category B=SBP in SHRs 20-40 mmHg)”.
As to `Cc1nc2c(CCC(F)(F)C(F)(F)F)nc(-c3nc(N)c4c(n3)NC(=O)C4(C)c3nnc(C4CC4)o3)cn2n1` (stereo not shown) [Example 103A, 4-amino-5-(5-cyclopropyl-1,3,4-oxadiazol-2-yl)-5-methyl-2-(2-methyl-8-(3,3,4,4,4-pentafluorobutyl)-[1,2,4]triazolo[1,5-a]pyrazin-6-yl)-5H-pyrrolo[2,3-d]pyrimidin-6(7H)-one], the Emax at sGC α1/β1 heterodimer turned out to be 104%. In assay [1] (P.O. 2 mpk), the “Maximum peak decrease” value is given as “A (Category A=SBP in SHRs <20 mmHg)”.
`Nc1nc(-c2cn3ncnc3c(CCCC(F)(F)F)n2)nc2c1C(c1nnc(C3CC3)o1)(C1CC1)C(=O)N2` (stereo not shown) [Example 104A, 4-amino-5-cyclopropyl-5-(5-cyclopropyl-1,3,4-oxadiazol-2-yl)-2-(8-(4,4,4-trifluorobutyl)-[1,2,4]triazolo[1,5-a]pyrazin-6-yl)-5H-pyrrolo[2,3-d]pyrimidin-6(7H)-one]: at sGC α1/β1 heterodimer, the Emax stood at 117%. In addition, the “Maximum peak decrease” value in assay [1] (P.O. 3 mpk) is “C (Category C=SBP in SHRs >40 mmHg)”.
Consider `CCCCc1nc(-c2nc(N)c3c(n2)NC(=O)C3(c2nnc(C(F)(F)F)o2)C2CC2)cn2ncnc12` (stereo not shown) [Example 105A, 4-amino-2-(8-butyl-[1,2,4]triazolo[1,5-a]pyrazin-6-yl)-5-cyclopropyl-5-(5-(trifluoromethyl)-1,3,4-oxadiazol-2-yl)-5H-pyrrolo[2,3-d]pyrimidin-6(7H)-one], for which the Emax on sGC α1/β1 heterodimer came to 176%. Moreover, the “Maximum peak decrease” value in assay [1] (P.O. 0.3 mpk) was “B (Category B=SBP in SHRs 20-40 mmHg)”.
`Nc1nc(-c2cn3ncnc3c(CCCC(F)(F)F)n2)nc2c1C(c1nnc(C(F)(F)F)o1)(C1CC1)C(=O)N2` (stereo not shown) [Example 106A, 4-amino-5-cyclopropyl-2-(8-(4,4,4-trifluorobutyl)-[1,2,4]triazolo[1,5-a]pyrazin-6-yl)-5-(5-(trifluoromethyl)-1,3,4-oxadiazol-2-yl)-5H-pyrrolo[2,3-d]pyrimidin-6(7H)-one]: the Emax on sGC α1/β1 heterodimer was found to be 95%. The “Maximum peak decrease” value in assay [1] (P.O. 0.3 mpk) is on record as “C (Category C=SBP in SHRs >40 mmHg)”.
Consider `Nc1nc(-c2cn3ncnc3c(CCC(F)(F)C(F)(F)F)n2)nc2c1C(c1nnc(C3CC3)o1)(C1CC1)C(=O)N2` (stereo not shown) [Example 107A, 4-amion-5-cyclopropyl-5-(5-cyclopropyl-1,3,4-oxadiazol-2-yl)-2-(8-(3,3,4,4,4-pentafluorobutyl)-[1,2,4]triazolo[1,5-a]pyrazin-6-yl)-5H-pyrrolo[2,3-d]pyrimidin-6(7H)-one], for which, at sGC α1/β1 heterodimer, the Emax stood at 76%. Also, the “Maximum peak decrease” value in assay [1] (P.O. 3 mpk) is on record as “C (Category C=SBP in SHRs >40 mmHg)”.
For `CC1(c2ccc(O)cn2)C(=O)Nc2nc(-c3cn4ncnc4c(CCC(F)(F)C(F)(F)F)n3)nc(N)c21` (stereo not shown) [Example 110A, 4-Amino-5-(5-hydroxypyridin-2-yl)-5-methyl-2-(8-(3,3,4,4,4-pentafluorobutyl)-[1,2,4]triazolo[1,5-a]pyrazin-6-yl)-5,7-dihydro-6H-pyrrolo[2,3-d]pyrimidin-6-one], in that order: 70% and “B (Category B=SBP in SHRs 20-40 mmHg)”.
Turning to `Nc1nc(-c2cn3ncnc3c(CCCC(F)(F)F)n2)nc2c1C(c1ccc(O)cn1)(C1CC1)C(=O)N2` (stereo not shown) [Example 112A, 4-amino-5-cyclopropyl-5-(5-hydroxypyridin-2-yl)-2-(8-(4,4,4-trifluorobutyl)-[1,2,4]triazolo[1,5-a]pyrazin-6-yl)-5H-pyrrolo[2,3-d]pyrimidin-6(7H)-one], on sGC α1/β1 heterodimer, the Emax was 91%. Moreover, in assay [1] (P.O. 3 mpk), the “Maximum peak decrease” value is “A (Category A=SBP in SHRs <20 mmHg)”.

Values taken from patent publication US10925876B2, “Methods for using triazolo-pyrazinyl soluble guanylate cyclase activators in fibrotic disorders” (Merck Sharp & Dohme Corp., priority 2016, dated 2021).
